Test results as given in paper PMC6308302, “Identification of Pharmacokinetic Markers for Guanxin Danshen Drop Pills in Rats by Combination of Pharmacokinetics, Systems Pharmacology, and Pharmacodynamic Assays” (Frontiers in Pharmacology, 2018).
Marks after values point to notes of the source that are not given here.

Assays:
[1] = Aqueous solubility test (vortexing in water); assay type: physicochemical; settings: thermodynamic from solid; determined, water, 25 °C, 1 atm
Description: Aqueous solubility (S) test of the 17 ingredients was performed by vortexing 10 mg of each ingredient in […] water in a test tube at ambient temperature and 1 atm. After vortexing for 5 min, if the solution is clear, the tested object will be considered as soluble in water. In silico assessment of the physicochemical properties governing permeation and intestinal absorption was carried out for the 17 ingredients studied. Theory aqueous solubility (S) was calculated with ALOGPS 2.1 online software via the Virtual Computational Chemistry Laboratory service (Chemoinformatics Group, Neuherberg, Germany) (VCCLAB^1). The octanol–water partition coefficient (cLogP), the total hydrogen bond count (donors and acceptors), and topological polar surface area (TPSA) were determined using the Molinspiration Property Calculator (Molinspiration Cheminformatics, Bratislava, Slovak Republic^2). Lipinski’s rule of 5 was used to predict the permeability of the compound ([Lipinski et al., 2001]).

Caco-2 cell monolayers = settings: ref Lu et al., 2008, Liu et al., 2009, Hu et al., 2014, Bowles et al., 2017, cited from earlier work; for Papp(apical→basolateral) / Papp(basolateral→apical): Caco-2 cell monolayers, from literature; for apparent permeability in Caco-2 cell monolayers: previous results
[2] = Multiple component PK study in rat plasma after p.o. GDDP (HPLC-MS); settings: GDDP 0.8 g/kg p.o.; at 5, 10, 15, 30, 45, or 60 min; LOD 0.5–0.7 ng/mL

solubility at 5 min [1] [µg/mL] | detection in rat plasma [2] | Compound | Papp(apical→basolateral) (Caco-2 cell monolayers) | Papp(basolateral→apical) (Caco-2 cell monolayers) | apparent permeability in Caco-2 cell monolayers (Caco-2 cell monolayers)
> 10000 |  | O=C(/C=C/c1ccc(O)c(O)c1/C=C/c1ccc(O)c(O)c1)OC(Cc1ccc(O)c(O)c1)C(=O)O (stereo not shown) [SAA, SA A] | 0.0595^a ×10^-6 cm/s | 0.0554^a ×10^-6 cm/s | 
> 10000 | could be detected | CC(C)=CCC[C@](C)(O[C@@H]1O[C@H](CO)[C@@H](O)[C@H](O)[C@H]1O)[C@H]1CC[C@]2(C)[C@@H]1[C@H](O)C[C@@H]1[C@@]3(C)CC[C@H](O)C(C)(C)[C@@H]3[C@@H](O[C@@H]3O[C@H](CO)[C@@H](O)[C@H](O)[C@H]3O[C@@H]3O[C@@H](C)[C@H](O)[C@@H](O)[C@H]3O)C[C@]12C [Re, ginsenoside Re] | > 0.1^c ×10^-6 cm/s | > 0.1^c ×10^-6 cm/s | 
> 10000 |  | O=C(O)/C=C/c1ccc(O)c(O)c1 [CA, caffeic acid] | 4.35^b ×10^-6 cm/s | 7.74^b ×10^-6 cm/s | ≥ 10^-6 cm/s
> 10000 | could be detected | O=C(O)c1ccc(O)c(O)c1 [PCA, protocatechuic acid] | 4.52^b ×10^-6 cm/s | 6.91^b ×10^-6 cm/s | ≥ 10^-6 cm/s
> 10000 |  | O=C(/C=C/c1ccc(O)c2c1[C@H](C(=O)O)[C@@H](c1ccc(O)c(O)c1)O2)O[C@H](Cc1ccc(O)c(O)c1)C(=O)O [LA, lithospermic acid] | 0.0816^a ×10^-6 cm/s | 0.0413^a ×10^-6 cm/s | 
> 10000 |  | O=C(/C=C/c1ccc(O)c2c1C(C(=O)OC(Cc1ccc(O)c(O)c1)C(=O)O)C(c1ccc(O)c(O)c1)O2)OC(Cc1ccc(O)c(O)c1)C(=O)O (stereo not shown) [SAB, SA B] | 0.0200^a ×10^-6 cm/s | 0.0377^a ×10^-6 cm/s | 
